In patent US20210040485A1, “Elimination or Neutralization of Endogenous High Molecular Weight FGF-2 Increases Cardiac Resistance to Doxorubicin-Induced Damage” (University of Manitoba, priority 2018, published 2021):
Like-named read-outs stand apart in the source and are kept apart here.

What was measured:
[1] = test system: FGF2(WT), FGF2(−), FGF2(Hi), FGF2(Lo) mice; experiment: In vivo model for acute Doxorubicin effects: mortality and body weight; design: species or system mouse; conditions: for effect on body weight: all groups, 10 days post-injection; for Dox-induced mortality: by day 10 post-Dox
Source text: In vivo model for acute cardiotoxic effects. […] Hearts were then collected for biochemical analyses.

[2] = test system: neonatal rat ventricular cardiomyocytes co-cultured with MEFs; experiment: MEF-cardiomyocyte co-cultures exposed to Dox: Troponin T release into medium; assay type: cell-based; conditions: Dox 0.5 μM, 24 h
Experimental: In vitro experiments. Neonatal rat ventricular cardiomyocytes (referred to as ‘cardiomyocytes’) were isolated from 1-2 day old rat pups as previously described (10).
MEF-Cardiomyocyte co-cultures. Cardiomyocytes were plated at a density of 5×10^4 cells/cm^2 on collagen (Corning, #354236) coated glass coverslips in the presence of 20% fetal bovine serum (FBS) in Hams F-10 culture medium; 24 hours later the media was changed and MEFS from FGF2(WT), FGF2(−), FGF2(Hi), and FGF2(Lo) strains (2×10^4/cm^2) were added to the cultures in low-serum medium (0.5% FBS, 1% insulin, 1% transferrin/selenium, and 1% ascorbic acid) in Dulbecco's modified Eagle's medium (DMEM). […] Conditioned media were collected 24 h later, and stored at −80° C. Cells attached on coverslips were used for the Calcein-AM/Cobalt chloride mPTP assay.
Primary mouse embryonic fibroblasts (MEFs)-r-cardiomyocyte co-cultures. MEFs were isolated as described (30). R-cardiomyocytes were plated at a density of 5×10^4 cells/cm^2 on collagen (Corning, #354236) coated glass coverslips in the presence of 20% fetal bovine serum (FBS) in Hams F-10 culture medium; 24 hours later the media was changed and MEFS from FGF2(WT) and FGF2(Lo) strains (2×10^4/cm^2) were added to the cultures in low-serum medium (0.5% FBS, 1% insulin, 1% transferrin/selenium, and 1% ascorbic acid) in Dulbecco's modified Eagle's medium (DMEM). […]

[3] = test system: r-cardiomyocytes co-cultured with human FibiPSC; experiment: FibiPSC-cardiomyocyte co-cultures exposed to Dox: cTnT release; assay type: cell-based, rat; conditions: control (IgG) co-cultures with h-FibiPSC; Dox 0.5 μM, 24 h
Experimental: Fib^iPSC-Cardiomyocyte co-cultures. Cardiomyocytes were plated at a density of 5×10^4 cells/cm^2 on collagen coated plates in the presence of 20% (FBS) in Hams F-10 culture medium. After 24 hours, the media was changed to low serum medium (0.5% FBS, 1% insulin, 1% transferrin/selenium, 1% ascorbic acid, and 1% bovine serum albumin) in Dulbecco's modified Eagle's medium (DMEM). FibiPSC were added to the cultures at a density of 3×10^4/cm^2. Human Hi-FGF2 antibody (Hi-Ab, 20 μg/ml) or non-immune rabbit IgG was added to the culture after 6 hours. The Hi-Ab and rabbit IgG were supplemented in the co-cultures every 24 hours. […] Subsequently, the media was collected and stored at −80° C.
Protein extraction and immunoblotting (western blot).
Hi-FGF2 antibody. Anti-Hi-FGF2 antibody (Hi-Ab) against 12 amino acids from the N-terminal section of the Hi-FGF2 “[…]” (SEQ ID NO:1) was made in rabbit and affinity purified by Genscript. Characterization was done as we described previously, for a similar preparation anti-Hi-FGF2 (9). Affinity purified Hi-Ab was used at a concentration of 20 μg/ml in in vitro models.

[4] = test system: Bnip3 protein in hearts of FGF2 mouse strains; conditions: in vivo
Experimental: Protein (western) immunoblotting. At the end of the in vivo study, hearts were collected, snap frozen in liquid nitrogen, and stored at −80° C. Hearts were powdered with liquid nitrogen using a mortar and pestle prior to being homogenized in 10 mM Tris-HCl pH 7.4, 100 mM NaCl, 300 mM sucrose, 2 mM MgCl2, 1% thiodiglycol, 60 mM B glycerophosphate, 10 mM NaF and an equal volume of 20% glycerol, 100 mM Tris/HCl PH=6.8, and 2% sodium dodecyl sulphate (SDS). All buffers were supplemented (1:100) with protease inhibitor cocktail (Sigma-Aldrich, #8304) and phosphatase inhibitor cocktail set II and IV (Calbiochem, #524625 and #524628). Samples were boiled, sonicated, and centrifuged 15 minutes at 21,000 g to remove cellular debris. Protein concentration was measured by bicinchoninic acid assay. Following SDS-polyacrylamide gel electrophoresis and protein transfer to polyvinylidene fluoride (PVDF) membranes, total protein was stained using 2% Ponceau S (Sigma-Aldrich, P3504) (w/v) in 30% trichloroacetic acid to assess overall protein transfer. Non-specific binding sites were blocked by incubation in 10% milk/TBS-T for 1 hour at room temperature. […]
Protein extraction and immunoblotting (western blot). […] Protein concentration was measured using the bicinchoninic acid assay from Sigma. […]

cancer patients = conditions: cited from earlier work
[5] = clinic; cited from earlier work

Substance	effect on body weight [1]	effect on body weight ([1]; listed as Doxorubicin)	deaths associated with Dox administration ([1]; female FGF2(WT) and FGF2(Lo) groups)	Dox-induced mortality ([1]; female FGF2(−) mice)	post-Dox mortality ([1]; male FGF2(Hi) mice)	post-Dox mortality ([1]; male FGF2(WT) mice)	Dox-induced mortality ([1]; male FGF2(−) mice)	deaths associated with Dox administration ([1]; males, in either the FGF2(WT) or the FGF2(Lo) group)	deaths post-Dox ([1]; remaining female groups (other than FGF2(−)))	Dox-induced cTnT release ([2]; co-cultures with FGF2(WT) MEFs)	Dox-induced Tn-T release ([2]; co-cultures with FGF2(WT), FGF2(−) and FGF2(Hi) MEFs)	cardiomyocyte damage measured by cTnT release [3]	upregulation of cardiac Bnip3 protein versus saline-treated group [4]	incidence of cardiotoxicity (cancer patients; cumulative dose 400 mg/m^2)	incidence of cardiotoxicity (cancer patients; cumulative dose 700 mg/m^2)	half life [5]
Doxorubicin	some weight loss	significantly decreased body weight	No death	30%	20%	10%	70%	one death in ten animals	No deaths	observed	observed	robust cardiomyocyte damage	1.5 fold	3-5%	18-48%	–
infliximab	–	–	–	–	–	–	–	–	–	–	–	–	–	–	–	9.5 days
pertuzumab	–	–	–	–	–	–	–	–	–	–	–	–	–	–	–	18 days
